On to `COc1ccc(CNC2CCN(C(=O)c3cc4cc(Oc5ccc(NC(=O)c6ccc(C(F)(F)F)cc6)cn5)ccc4n3C)CC2)cc1` [Example 233, N-[6-(2-{4-[(4-Methoxyphenyl)methylamino]piperidine-1-carbonyl}-1-methyl-1H-indol-5-yloxy)pyridin-3-yl]-4-trifluoromethyl-benzamide], for which the melting point – broadly, the temperature, or range, at which the solid turns liquid – lay in the range of 139 to 142 °C.

Consider `Br.Br.CN(C(=O)c1ccc(Cl)c(Cl)c1)c1ccc(Oc2ccc3c(c2)cc(C(=O)N2CCN(Cc4ccncc4)CC2)n3C)nc1` [Example 554, 3,4-Dichloro-N-methyl-N-{6-[1-methyl-2-(4-pyridin-4-ylmethyl-piperazine-1-carbonyl)-1H-indol-5-yloxy]pyridin-3-yl}benzamide dihydrobromide], for which the melting point was 204 to 208 °C (dec.).

On to `CN(c1ccc(Oc2ccc3cc(C(=O)N4CCN(Cc5ccc(OCC(F)(F)F)cc5)CC4)[nH]c3c2)nc1)S(=O)(=O)c1ccc(Cl)c(Cl)c1.Cl`, for which the melting point was in the range of 225.2 to 229.3 °C.

In turn, `CN(c1ccc(Oc2ccc3cc(C(=O)N4CCN(Cc5ccc(OCC(F)(F)F)cc5)CC4)n(C)c3c2)nc1)S(=O)(=O)c1ccc(C(F)(F)F)cc1.Cl` had a melting point of 256.9 to 257.7 °C.

Regarding `Br.CN(C(=O)c1ccc(Cl)c(Cl)c1)c1ccc(Oc2ccc3c(c2)cc(C(=O)N2CCN(Cc4ccccc4)CC2)n3C)nc1` [Example 330, N-{6-[2-(4-Benzylpiperazine-1-carbonyl)-1-methyl-1H-indol-5-yl-oxy]pyridin-3-yl}-3,4-dichloro-N-methylbenzamide hydrobromide], the melting point lay in the range of 210 to 213 °C.

`Br.COc1ccc(CN2CCN(C(=O)c3cc4cc(Oc5ccc(NC(=O)c6cc7cc(Br)ccc7[nH]6)cn5)ccc4n3C)CC2)cc1` [Example 228, 5-Bromo-1H-indole-2-carboxylic acid (6-{2-[4-(4-methoxybenzyl)-piperazine-1-carbonyl]-1-methyl-1H-indol-5-yloxy}pyridin-3-yl)-amide hydrobromide] came in with a melting point of 263 to 265 °C.

`Br.CN(C(=O)c1ccc(C(F)(F)F)cc1)c1ccc(Oc2ccc3cc(C(=O)N4CCN(Cc5ccc(OC(F)(F)F)cc5)CC4)n(C)c3c2)nc1` [Example 446, N-Methyl-N-(6-{1-methyl-2-[4-(4-trifluoromethoxybenzyl)-piperazine-1-carbonyl]-1H-indol-6-yloxy}pyridin-3-yl)-4-tri-fluoromethylbenzamide hydrobromide] registered a melting point of 237 to 239 °C.

Compound `Br.Cn1c(C(=O)N2CCN(Cc3ccc(OC(F)F)cc3)CC2)cc2ccc(Oc3ccc(NC(=O)c4ccc(C(F)(F)F)cc4)cn3)cc21` [Example 477, N-(6-{2-[4-(4-Difluoromethoxybenzyl)piperazine-1-carbonyl]-1-methyl-1H-indol-6-yloxy}pyridin-3-yl)-4-trifluoromethylbenzamide hydrobromide] gave a melting point of 265.6 to 268.3 °C.

Consider `Br.C[C@H]1CN(C(=O)c2cc3ccc(Oc4ccc(NC(=O)c5ccc(OC(F)(F)F)cc5)cn4)cc3n2C)CCN1Cc1ccc(OCC(F)(F)F)cc1` [Example 293, N-[6-(1-Methyl-2-{(S)-3-methyl-4-[4-(2,2,2-trifluoroethoxy)-benzyl]piperazine-1-carbonyl}-1H-indol-6-yloxy)pyridin-3-yl]-4-trifluoromethoxybenzamide hydrobromide], for which the melting point fell in the range of 199.4 to 203.1 °C.

On to `Br.Cn1c(C(=O)N2CCN(Cc3ccc(OC(CF)CF)cc3)CC2)cc2ccc(Oc3ccc(NC(=O)c4ccc(Cl)c(Cl)c4)cn3)cc21` [Example 470, 3,4-Dichloro-N-[6-(2-{4-[4-(2-fluoro-1-fluoromethylethoxy)-benzyl]piperazine-1-carbonyl}-1-methyl-1H-indol-6-yloxy)pyridin-3-yl]benzamide hydrobromide], for which the melting point fell in the range of 242.8 to 243.9 °C.

The values are drawn from patent US8551999B2, “Heterocyclic compound and pharmaceutical composition thereof” (Otsuka Pharmaceutical Co., Ltd., priority 2007, dated 2013).
